According to the CheMixHub viscosity set:
Several values for one entry are separate records, joined by “and”; a condition that tells them apart may be missing. Identical values can stand only once.

Experiment: xn = mol fraction of the nth substance listed

CCCCN(CCCC)CCCC + CCO
viscosity [mPa·s], 101.33 kPa
Conditions	298.15 K	303.15 K	308.15 K	313.15 K	318.15 K	323.15 K
x1 = 0.0992	–	1.26	–	1.084	–	0.951
x1 = 0.1034	1.393	–	1.17	–	1.011	–
x1 = 0.1456	1.458	–	1.225	–	1.06	–
x1 = 0.1561	–	1.334	–	1.151	–	1.015
x1 = 0.1969	–	1.357	–	1.174	–	1.035
x1 = 0.2099	1.508	–	1.267	–	1.094	–
x1 = 0.2529	1.52	1.371	1.276	1.183	1.098	1.04
x1 = 0.2945	–	1.367	–	1.18	–	1.033
x1 = 0.3036	1.52	–	1.274	–	1.091	–
x1 = 0.3531	1.511	–	1.265	–	1.078	–
x1 = 0.3639	–	1.349	–	1.163	–	1.012
x1 = 0.3986	1.501	1.341	1.255	1.153	1.065	1
x1 = 0.4508	1.488	1.325	1.242	1.137	1.049	0.982
x1 = 0.4951	1.477	–	1.231	–	1.036	–
x1 = 0.503	–	1.309	–	1.122	–	0.967
x1 = 0.5448	1.467	–	1.221	–	1.024	–
x1 = 0.5537	–	1.294	–	1.11	–	0.954
x1 = 0.601	1.458	–	1.211	–	1.012	–
x1 = 0.6426	–	1.267	–	1.09	–	0.936
x1 = 0.6648	1.448	–	1.199	–	0.998	–
x1 = 0.7126	1.441	–	1.19	–	0.988	–
x1 = 0.7382	–	1.249	–	1.067	–	0.915
x1 = 0.7934	1.424	–	1.173	–	0.967	–
x1 = 0.8711	–	1.207	–	1.027	–	0.876
x1 = 0.9196	–	1.186	–	1.012	–	0.861
x1 = 0.9232	1.391	–	1.138	–	0.928	–
x1 = 0.9604	–	1.176	–	1.002	–	0.851

CCCCN(CCCC)CCCC + CO
viscosity [mPa·s], 101.33 kPa
Conditions	298.15 K	303.15 K	308.15 K	313.15 K	318.15 K	323.15 K
x1 = 0.1015	–	0.881	–	0.778	–	0.675
x1 = 0.1093	1.013	–	0.889	–	0.735	–
x1 = 0.1551	–	1.008	–	0.896	–	0.787
x1 = 0.2027	1.21	–	1.07	–	0.919	–
x1 = 0.2166	–	1.106	–	0.994	–	0.895
x1 = 0.256	1.278	–	1.132	–	0.992	–
x1 = 0.2933	–	1.177	–	1.068	–	0.984
x1 = 0.3035	1.319	–	1.169	–	1.036	–
x1 = 0.3493	–	1.208	–	1.101	–	1.027
x1 = 0.362	1.353	–	1.197	–	1.066	–
x1 = 0.404	1.369	–	1.208	–	1.073	–
x1 = 0.4195	–	1.228	–	1.12	–	1.044
x1 = 0.4528	1.383	–	1.215	–	1.07	–
x1 = 0.4998	–	1.235	–	1.118	–	1.03
x1 = 0.5101	1.394	–	1.216	–	1.054	–
x1 = 0.5426	–	1.235	–	1.108	–	1.011
x1 = 0.5541	1.4	–	1.213	–	1.036	–
x1 = 0.604	1.404	–	1.208	–	1.014	–
x1 = 0.6175	–	1.232	–	1.093	–	0.974
x1 = 0.6459	–	1.233	–	1.085	–	0.961
x1 = 0.6609	1.408	–	1.2	–	0.989	–
x1 = 0.6925	1.409	–	1.194	–	0.977	–
x1 = 0.7057	–	1.224	–	1.069	–	0.932
x1 = 0.7264	1.409	–	1.188	–	0.966	–
x1 = 0.763	–	1.217	–	1.052	–	0.911
x1 = 0.8027	1.405	–	1.172	–	0.95	–
x1 = 0.8237	–	1.205	–	1.039	–	0.897
x1 = 0.8877	–	1.19	–	1.022	–	0.885
x1 = 0.8925	1.395	–	1.151	–	0.941	–
x1 = 0.9438	–	1.178	–	1.011	–	0.873

CC(C)(N)CO + O
viscosity
Conditions	303.15 K	308.15 K	313.15 K	318.15 K	323.15 K
100 kPa, x1 = 0.01	–	–	0.77 mPa·s	–	–
100 kPa, x1 = 0.022	–	–	0.93 mPa·s	–	–
100 kPa, x1 = 0.048	–	–	1.36 mPa·s	–	–
100 kPa, x1 = 0.12	–	–	3.15 mPa·s	–	–
101 kPa, x1 = 0.0105	0.88 mPa·s	0.79 mPa·s	0.72 mPa·s	0.65 mPa·s	0.52 mPa·s
101 kPa, x1 = 0.0539	1.8 mPa·s	1.59 mPa·s	1.39 mPa·s	1.23 mPa·s	1 mPa·s
101 kPa, x1 = 0.0728	2.48 mPa·s	2.1 mPa·s	1.8 mPa·s	1.56 mPa·s	1.29 mPa·s
101 kPa, x1 = 0.1	3.54 mPa·s	2.74 mPa·s	2.29 mPa·s	1.96 mPa·s	1.7 mPa·s and 1.95 mPa·s
101 kPa, x1 = 0.1571	6.33 mPa·s	4.28 mPa·s	3.11 mPa·s	2.86 mPa·s	2.58 mPa·s
101 kPa, x1 = 0.2	11.06 mPa·s	–	6.65 mPa·s	–	4.14 mPa·s
101 kPa, x1 = 0.2559	13.3 mPa·s	7.93 mPa·s	5.49 mPa·s	5.09 mPa·s	4.51 mPa·s
101 kPa, x1 = 0.3	20.33 mPa·s	–	11.74 mPa·s	–	7.18 mPa·s
101 kPa, x1 = 0.3532	23.78 mPa·s	16.16 mPa·s	12.24 mPa·s	9.26 mPa·s	7.5 mPa·s
101 kPa, x1 = 0.4	32.25 mPa·s	–	18.35 mPa·s	–	11.9 mPa·s
101 kPa, x1 = 0.4546	41.28 mPa·s	27.92 mPa·s	20.29 mPa·s	15.33 mPa·s	10.88 mPa·s
101 kPa, x1 = 0.5	53.64 mPa·s	–	25.49 mPa·s	–	15.29 mPa·s
101 kPa, x1 = 0.5537	56.6 mPa·s	38.93 mPa·s	28.36 mPa·s	20.9 mPa·s	14.59 mPa·s
101 kPa, x1 = 0.6	60.63 mPa·s	–	33.17 mPa·s	–	16.56 mPa·s
101 kPa, x1 = 0.658	71.44 mPa·s	49.28 mPa·s	35.14 mPa·s	25.89 mPa·s	18.35 mPa·s
101 kPa, x1 = 0.7	82.98 mPa·s	–	43.03 mPa·s	–	20.8 mPa·s
101 kPa, x1 = 0.7001	76.44 mPa·s	53.22 mPa·s	37.3 mPa·s	27.62 mPa·s	19.8 mPa·s
101 kPa, x1 = 0.8	91.29 mPa·s	–	46.27 mPa·s	–	22.2 mPa·s
101 kPa, x1 = 0.8108	85.3 mPa·s	57.86 mPa·s	41.82 mPa·s	31.42 mPa·s	22.59 mPa·s
101 kPa, x1 = 0.9	96.39 mPa·s	–	47.42 mPa·s	–	23.4 mPa·s
101 kPa, x1 = 0.9082	88.75 mPa·s	60 mPa·s	43 mPa·s	32.18 mPa·s	22.98 mPa·s
101.33 kPa, x1 = 0.048	1.866 mPa·s	–	1.405 mPa·s	–	1.099 mPa·s
101.33 kPa, x1 = 0.08	3.053 mPa·s	–	2.168 mPa·s	–	1.621 mPa·s
